Data published in patent publication US20260072027A1, “Peptides And Method” (Queen Mary University of London, priority 2022, published 2026).
Where no end group is shown, it is not given here. [ ]: non-standard residue; d: D form. Dopa = N[C@@H](Cc1ccc(O)c(O)c1)C(=O)O; Cya = N[C@@H](CS(=O)(=O)O)C(=O)O

What was measured:
[1] = test system: autoantibodies to oxPTM-INS; assay: Competitive displacement ELISA, plate coated with oxidised insulin; type: binding, human
Description: A competitive displacement assay was performed to map the exact epitope, namely the exact amino acid sequence binding specificities and to test the binding to native peptides versus oxidised insulin peptides. The binding to the peptide was done by direct ELISA on the native or modified peptides or by competition ELISA. Initially native synthetic peptide was oxidised by exposing to 0.05 mM CuCl2; 90 mM H2O2; 10 mM NaOCl. Native and modified peptides were fractionated by AKTA to evaluated changes in molecular profile. AKTA fractions were then tested by ELISA for reactivity (FIGS. 2 and 3). We next perform competition ELISA with the native peptides and peptides exposed to 0.05 mM CuCl2; 90 mM H2O2; 10 mM NaOCl. Serum samples were pre-incubated with either native insulin peptides or oxidised insulin peptides. Finally, based on the amino acid sequence of the identified peptides we predicted the amino acids that would be oxidised by ^●OH and HOCl and designed synthetic peptides that contain the oxidised amino acids in the synthesis. Synthetic peptides were produced by standard commercially available methods, specifically by Peptide Protein Research Ltd. Briefly, peptide synthesis was performed by automated solid phase peptide synthesis (SPPS), which was followed by purification. Each individual amino acid was added to the growing chain according to the sequence. Where specified, dihydroxyphenylalanine was added to replace Tyr or cysteate were added to replace Cys. Similarly, these peptides were tested by competition ELISA. The table below describe the different competition ELISA performed:
Serum samples from children with type 1 diabetes were pre-incubated with the synthetic peptides before they were added to the native insulin or oxidised that were previously coated on the ELISA plate. If the antibodies in the serum sample bind to the peptide they will no longer bind to the insulin or oxidised insulin on the plate-competition ELISA. 1:200 dilutions of serum samples from T1D serum samples were pre-incubated for 2 hr at room temperature with the various peptides as shown in the table above. After incubation, serum/peptide mix was added to the ELISA plate previously coated overnight with either native insulin or oxidised insulin for an additional 2 hr incubation. Plates were then washed in a plate washer three times with PBS 0.05% tween. After washing, 100 ul of anti-human IgG diluted 1:1000 in 1% milk-PBS 0.05% tween were added for additional 1 hour and 30 min incubation. After washing, ELISA was developed by adding 100 ul of TMB (10 mg/ml in DMSO) in 10 ml of 0.1 M sodium acetate plus 2 ul of H2O2. Reaction was stopped by adding 0.5 M H2SO4 (usually 20 min for insulin ELISA).
To assess the binding specificity of serum samples to identified peptides, a competitive ELISA was performed. The ELISA was carried out following the method described above, except that the serum samples were pre-incubated for 2 h with and without 10 μg/ml peptides as competitors, before adding the serum samples to the insulin coated ELISA plate.

serum IgG autoantibodies = assay: ELISA for autoantibody detection: serum antibody binding to native and oxPTM insulin peptides; design: species or system human; conditions: for % binders, Healthy controls / Mean ± SEM (absorbance, OD), Healthy controls / % binders, Type 1 diabetes: Study cohort 1; for % binders, Type 1 diabetes: cut-off = mean of healthy controls to Nt-INSP plus 3 SEM; for Mean ± SEM (absorbance, OD), Type 1 diabetes: Study cohort 1 sera
Description: ELISA for autoantibody detection. The ELISA analysis of Nt-INS and oxPTM-INS autoantibodies was performed as previously described [18](detailed in ESM methods, ELISA assay for antibody detection).
Statistical analyses. Statistical analyses were performed using Prism Software 9.0 (GraphPad, San Diego, CA, USA). Cut-off points of positivity (binders) in the antibody ELISA for each peptide were defined by the mean of optical absorbance (O.D) of healthy controls to the corresponding Nt-INSP plus three times the standard error of the mean (SEM). Specificity and sensitivity were evaluated by receiver operating characteristic (ROC) curve analysis. Area under the curve (AUC) is reported as absolute value and was tested for equality according to DeLong et al. Differences in antibody levels and T-cell stimulation indices (SI) between groups were tested by the One way ANOVA or Student's t-tests as appropriate. Correlation analyses were tested by Pearson or Spearman's test, as appropriate. Categorical analyses were performed by Chi-square or McNemar's tests, as appropriate. For each set of experiments, p values were adjusted for multiple comparison using the Holm-Sidak's test. Hierarchical cluster and Principal Component Analysis (PCA) was done using Clustvis software (https://biit.cs.ut.ee/clustvis/) and Prism Software 9.0, respectively.
Antibody reactivity of type 1 diabetes serum against the candidate oxPTM-INSP. Identified peptide candidates were synthesised and exposed to either HOCl or ^●OH to generate oxPTM-INSPs that were first assessed by TOF-MS/ES+TIC to confirm modification (FIG. 17). Antibody response against native INSPs (Nt-INSPs) and oxPTM-INSPs was evaluated by ELISA using sera from Study cohort 1.
ESM Methods ELISA assay for antibody detection. The ELISA analysis of native (Nt-INS) and modified insulin (oxPTM-INS) was performed as previously described. Briefly, the ELISA plate was coated overnight at 4° C. with 100 μl per well of modified or native insulin in 0.05 M carbonate/bicarbonate buffer pH 9.6 at 10 μg/ml. The next day, the plates were washed 3 times with 0.1% Tween PBS, followed by blocking for 2 hours at room temperature with 200 μl per well of 5% BSA in 0.1% Tween PBS. After washing, 100 μl of 1:200-diluted serum samples in 5% BSA-0.1% Tween PBS were added for additional 2 hours incubation. ELISA plates were then washed 3 times with 0.1% Tween PBS followed by probing with anti-human IgG horse radish peroxidase conjugated (HRP, Sigma) at 1:1,000 dilution in 5% BSA-0.1% Tween PBS for another 1.5 hours incubation. The ELISA plates were washed, and 100 μg/ml TMB substrate in 0.1M sodium acetate pH 6.0 plus 2 μl/10 ml of H2O2, were added. Subsequently, the reaction was stopped with 20% v/v sulphuric acid. The optical density (O.D.) was measured at 450 nm using a GENios plate reader and Magellan software (TECAN, Dorset, UK).

CD4+ T-cells (PBMCs) = assay: In vitro peptide stimulation and T-cell proliferation assay, CD4+; type: cell-based, human
Description: (§1) In vitro peptide stimulation and T-cell proliferation assay. Peripheral blood mononuclear cells (PBMCs) were freshly isolated from type 1 diabetes and healthy individuals using Ficoll-Hypaque density gradient centrifugation. PBMCs were labelled with the fluorescent dye CellTrace Violet (Invitrogen, Thermo Fisher Scientific) and cultured (2×10^5 cells/well) in round-bottom 96-well plates (Falcon, Becton Dickinson) with RPMI-1640 medium (Gibco, Thermo Fisher Scientific) supplemented with 5% autologous plasma in the presence or not of insulin peptides (20 μg/ml); PPD (10 μg/ml) and anti-CD3 (0.1 μg/ml; clone OKT3) were used as positive control. Two scrambled peptides: […] (SEQ ID NO: 17), […] (SEQ ID NO: 18), and the Exendin 9-39 fragment were used as negative controls. After 7 days, PBMCs were stained with PE-Cy7 anti-CD8 (clone RPA-T8, BD Pharmingen) and FITC anti-CD3 (clone UCHT1, BD Pharmingen). Samples were analysed by using a FACSCanto II (BD Bioscience) to evaluate T-cell proliferation measured as CellTrace Violet dilution. Cytofluorimetric analyses were performed using FlowJo Software (FlowJo, LLC). The results were given as stimulation index (SI), calculated as percentage of stimulated T-cell subset proliferation/percentage of unstimulated T-cell subset proliferation. Assay for detection of peptide specific T cells subsets was done as previously described (detailed in ESM methods, Assay for detection of peptide specific T cells)
(§2) T-cell stimulation with oxPTM-INSPs. To evaluate the immune cell response against the oxPTM-INSPs, we performed CD4+ and CD8+ T cells proliferation experiments using freshly isolated PBMCs (Study cohort 2, Table 1). Response was calculated as stimulatory index (SI) over unstimulated T-cells.

CD8+ T-cells (PBMCs) = assay: In vitro peptide stimulation and T-cell proliferation assay, CD8+; type: cell-based, human
Description: as §1, §2

| Substance | % binders, Healthy controls (serum IgG autoantibodies; in silico modifications) [%] | Mean ± SEM (absorbance, OD), Healthy controls (serum IgG autoantibodies; in silico modifications) | % binders, Type 1 diabetes (serum IgG autoantibodies; in silico modifications) [%] | Mean ± SEM (absorbance, OD), Type 1 diabetes (serum IgG autoantibodies; in silico modifications) | CD4+ T-cell response, subjects with SI > 1 (%) (CD4+ T-cells (PBMCs); Controls (N = 11)) | CD4+ T-cell response, subjects with SI > 3 (%) (CD4+ T-cells (PBMCs); Controls (N = 11)) | CD4+ T-cell response, subjects with SI > 5 (%) (CD4+ T-cells (PBMCs); Controls (N = 11)) | CD4+ T-cell response, subjects with SI > 10 (%) (CD4+ T-cells (PBMCs); Controls (N = 11)) | CD4+ T-cell response, subjects with SI > 1 (%) (CD4+ T-cells (PBMCs); Type 1 diabetes (N = 18)) | CD4+ T-cell response, subjects with SI > 3 (%) (CD4+ T-cells (PBMCs); Type 1 diabetes (N = 18)) | CD4+ T-cell response, subjects with SI > 5 (%) (CD4+ T-cells (PBMCs); Type 1 diabetes (N = 18)) | CD4+ T-cell response, subjects with SI > 10 (%) (CD4+ T-cells (PBMCs); Type 1 diabetes (N = 18)) | CD8+ T-cell response, subjects with SI > 1 (%) (CD8+ T-cells (PBMCs); Controls (N = 11)) | CD8+ T-cell response, subjects with SI > 3 (%) (CD8+ T-cells (PBMCs); Controls (N = 11)) | CD8+ T-cell response, subjects with SI > 5 (%) (CD8+ T-cells (PBMCs); Controls (N = 11)) | CD8+ T-cell response, subjects with SI > 10 (%) (CD8+ T-cells (PBMCs); Controls (N = 11)) | CD8+ T-cell response, subjects with SI > 1 (%) (CD8+ T-cells (PBMCs); Type 1 diabetes (N = 18)) | CD8+ T-cell response, subjects with SI > 3 (%) (CD8+ T-cells (PBMCs); Type 1 diabetes (N = 18)) | CD8+ T-cell response, subjects with SI > 5 (%) (CD8+ T-cells (PBMCs); Type 1 diabetes (N = 18)) | CD8+ T-cell response, subjects with SI > 10 (%) (CD8+ T-cells (PBMCs); Type 1 diabetes (N = 18)) | further results |
| --- | --- | --- | --- | --- | --- | --- | --- | --- | --- | --- | --- | --- | --- | --- | --- | --- | --- | --- | --- | --- | --- |
| ERGFFYTPKT (Ac-ERGFFYTPKT) [insulin B:21-30 native peptide] | 16 | 0.263 ± 0.020 | 63 | 0.423 ± 0.012 | – | – | – | – | – | – | – | – | – | – | – | – | – | – | – | – | reduced binding to oxidised whole insulin ([1]; type 1 diabetes sera pre-incubated with peptide): 35-70%; % binders, Healthy controls (serum IgG autoantibodies; in house modifications): 10%; Mean ± SEM (absorbance, OD), Healthy controls (serum IgG autoantibodies; in house modifications): 0.263 ± 0.023; % binders, Type 1 diabetes (serum IgG autoantibodies; in house modifications): 66%; Mean ± SEM (absorbance, OD), Type 1 diabetes (serum IgG autoantibodies; in house modifications): 0.435 ± 0.014 |
| ERGYYYTPKTR (Ac-ERGYYYTPKTR) [oxPTM-INSP-6 version with a C-terminal arginine] | 48 | 0.423 ± 0.039 | 88 | 0.697 ± 0.058 | (63.6%) | (27.3%) | (0.0%) | (0.0%) | (72.2%) | (38.9%) | (15.8%) | (16.7%) | (18.2%) | (9.10%) | (9.1%) | (9.1%) | (55.6%) | (16.7%) | (16.7%) | (16.7%) | – |
| Nt-INSP-6: native insulin peptide 6; printed as ERGFFYTPKT (SEQ ID NO: 5) and, in Tables 5 and 6, ERGFFYTPKTR (SEQ ID NO: 8) | – | – | – | – | – | – | – | – | – | 27.8% | – | – | – | – | – | – | – | – | – | – | inhibition of type 1 diabetes serum binding to oxPTM-INS (in words) ([1]; sera pre-incubated with peptide competitor): not; type 1 diabetes binders (IgG autoantibody reactivity) (serum IgG autoantibodies; Study cohort 2, N = 18): none |
| SL-DOPA-QLEN-DOPA-Cysteate-N (SL[Dopa]QLEN[Dopa][Cya]N) [in silico designed oxPTM-INSP-3 derivative] | 30 | 0.169 ± 0.008 | 57 | 0.256 ± 0.018 | (27.3%) | (0.0%) | (0.0%) | (0.0%) | (66.7%) | (5.6%) | (0.0%) | (0.0%) | (18.2%) | (9.10%) | (0.0%) | (0.0%) | (33.3%) | (16.7%) | (5.5%) | (5.6%) | – |
| SL-DOPA-QLENY-Cysteate-N (SL[Dopa]QLENY[Cya]N) [in silico designed oxPTM-INSP-3 derivative] | 17 | 0.154 ± 0.006 | 54 | 0.228 ± 0.016 | (54.5%) | (18.2%) | (18.2%) | (0.0%) | (50.0%) | (16.7%) | (10.5%) | (5.6%) | (36.4%) | (27.3%) | (27.3%) | (18.2%) | (44.4%) | (27.8%) | (16.7%) | (5.6%) | – |
